Measurements: patent publication US20080081829A1, “Medical Device Including an Anesthetic and Method of Preparation Thereof” (MED Institute, Inc, priority 2006, published 2008)
“Also recorded” adds a separate entry of the source. Where a name gives a salt, the structure may show the parent alone. Read-outs that look alike come from different tables or passages of the source.

Legend:
[1] = Elution of bupivacaine from spray-coated ureteral stents in aqueous buffers of different pH; type: physicochemical
Text: (§1) An approximately 0.6% solution of bupivacaine having a tertiary amine in the non-ionic form (formula (2a) above) in dichloromethane was loaded into a syringe mounted onto a syringe pump and connected to a tube that carried the solution to an ultrasonic nozzle (Model 06-05108—Sono-Tek Co., Poughkeepsie, N.Y. 12547.) A nozzle was 6 mm diameter, 11 mm long and used with a nominal frequency of 120 kHz. Air was purged from the solution line and the spray nozzle primed with the solution. The coating chamber was purged with nitrogen to attain an oxygen concentration below 100 ppm. The solution was sprayed onto ureteral stent substrates 20 to 280 mm long (polyurethane double pigtail soflex ureteral stent, Cook Incorporated (Bloomington, Ind.)). A smooth, uniform coating was observed. Control stents were coated with the same concentration of Bupivacaine.HCl using the above coating method.
The stents were placed in solutions at different pH values to test the elution of bupivacaine over time. […] Acetic acid/sodium acetate was used for the pH 4.5 buffer, 0.1 M phosphate-buffered solution (PBS) for the pH 7.0 buffer, and sodium carbonate for the pH 9.5 buffer.

[2] = Exposure of coated ureteral stent to water / aqueous environment (photomicrographs of coating); type: physicochemical
Text: as §1
(§2) FIGS. 4-7 depict photomicrographs of the coatings showing the uniformity and tenacity of the non-ionic coatings, in contrast to the water-soluble ionic coatings. […] FIG. 5 depicts a relatively rough, crystalline coating 91 of Bupivacaine.HCl on a ureteral stent 90, on the left, and the same stent after a one-minute ex vivo exposure to a pig ureter.
(§3) FIG. 7 then depicts the same type of stent 110 with a coating 114 of the non-ionic form of bupivacaine after 24 hours in an ex vivo test with a pig ureter.

[3] = Ex vivo exposure of coated ureteral stent to a pig ureter
Text: as §1, §2, §3

[4] = cited from earlier work
[5] = Table 1, anesthetics having protonated and unprotonated forms; cited from earlier work

SMILES	time of release/elution from coated stent ([1]; control stents coated with ionic form, aqueous solutions, same conditions, hydrochloride)	state of stent coating after dipping in water ([2]; dipped in water for one minute (FIG. 4))	state of stent coating after ex vivo exposure to pig ureter ([3]; one-minute ex vivo exposure (FIG. 5))	solubility in water (words) ([4]; hydrochloride)	solubility in water (words) ([4]; listed as bupivacaine hydrochloride, hydrochloride)	period over which release from ureteral stent occurs ([1]; coated polyurethane ureteral stent, solutions of pH 4.5, 7.0 and 9.5)	dependence of release rate on pH of the eluting solution ([1]; pH 4.5, 7.0, 9.5)	state of stent coating after exposure to aqueous environment ([2]; aqueous environment for several days (FIG. 6))	state of stent coating after ex vivo test with pig ureter ([3]; 24 hours ex vivo (FIG. 7))	pKa [5]	solubility ([4]; base or non-ionic form)	solubility in water (words) [4]	solubility in water (words) ([4]; listed as Bupivacaine)
CCCCN1CCCCC1C(=O)Nc1c(C)cccc1C (centres unmarked) [Bupivacaine.HCl, 1-butyl-N-(2,6-dimethylphenyl)-2-piperidinecarboxamide hydrochloride]	within a matter of minutes; also recorded: eluted fully within minutes	coating is substantially dissolved	Most of the coating 92 has been dissolved	water-soluble	soluble in water								
CCCCN1CCCCC1C(=O)Nc1c(C)cccc1C (centres unmarked) [bupivacaine]						about 12 days	approximately the same rate	virtually no effect on the coating	most of the non-ionic form of the bupivacaine coating remains on the stent	8.09	about 0.2 mg/mL	only very slightly soluble in water	sparingly soluble in water
CCCN1CCCC[C@H]1C(=O)Nc1c(C)cccc1C [ropivacaine]										8.16			
